Reference: patent US20040132803A1, “Agent for the treatment of overactive bladder” (priority 2003, published 2004)

What was measured:
[1] = test system: spinal cord-injured rats; experiment: Inhibition of detrusor hyperreflexia, cystometry in spinal cord-injured rats; assay type: in vivo, rat
Source text: Spinal cord injury was induced in rats.

[2] = test system: Na^+ currents; experiment: Voltage-clamp inward Na^+ currents in DRG cells; assay type: cell-based, rat
Description: Experiments were performed on adult female Sprague Dawley rats. First and second series of the experiments were performed, respectively, in unidentified DRG neurons and a specific population of DRG neurons innervating the urinary bladder. The population of DRG neurons that innervate the urinary bladder were labeled by retrograde axonal transport of the fluorescent dye, Fast Blue (4% w/v) (Polyloy, Gross Umstadt, Germany), injected into the wall of the bladder in halothane-anesthetized animals 7 days before the dissociation. The dye was injected with a 28 gauge needle at three to six sites on the dorsal surface of the organ (5-6 μL per site, total volume of 20-30 μL). Each injection site was washed with saline to minimize contamination of adjacent organs with the dye.
Freshly dissociated neurons from DRG were prepared from halothane-anesthetized animals. L6 and S1 DRG were dissected from animals and then dissociated in a shaking bath for 25 minutes at 35° C. with 5 mL DMEM (Sigma) containing 0.3 mg/mL trypsin (Type 3, Sigma), 1 mg/mL collagenase (Type 1, Sigma), and 0.1 mg/mL deoxyribonuclease (Type 4, Sigma). Trypsin inhibitor (Type 2a, Sigma) was then added thereto to neutralize the activity of trypsin. Individual DRG cell bodies were isolated by trituration and then plated on a poly-L-lysine-coated 35 mm Petri dishes.
Dye-labeled primary afferent neurons that innervate the urinary bladder were identified using an inverted phase-contrast microscope (Nikon, Tokyo, Japan) with fluorescent attachments (UV-1A filter; excitation wavelength, 365 nm). Gigaohm-seal whole-cell recordings were performed at room temperature (20-22° C.) on each labeled neuron in a culture dish that usually contained three to seven labeled cells among a few hundred unlabeled neurons. The internal solution contained (in mmol/L): KCl 140, CaCl2 1, MgCl2 2, EGTA 11, HEPES 10, Mg-ATP 2, and Tris-GTP 0.4 adjusted to pH 7.4 with KOH. Patch electrodes had resistances of 1-4 MΩ when filled with the internal solution. Neurons were superfused at a flow rate of 1.5 mL/minutes with an external solution containing (in mmol/L): NaCl 150, KCl 5, CaCl2 2.5, MgCl2 1, HEPES 10, and D-glucose 10, adjusted to pH 7.4 with NaOH. All recordings were made with an Axopatch-1D patch-clamp amplifier (Axon Instruments, Foster City, Calif.), and data were acquired and analyzed by PCLAMP software (Axon Instruments).
Inward Na^+ currents were evoked by voltage steps to +60 mV, 800 ms long from a holding potential of −90 mV. Currents were measured at the maximum (peak) and normalized to control (before addition of the compound).

[3] = 0.001 mg/kg p.o., after 3 hours
[4] = 0.001 mg/kg p.o., after 5 hours

C[C@](O)(C(=O)Nc1cccc2c1C(=O)c1sccc1CS2(=O)=O)C(F)(F)F [Compound 1, (S)-(+)-N-(5,5-dioxido-10-oxo-4,10-dihydrothieno[3,2-c][l]benzothiepin-9-yl)-3,3,3-trifluoro-2-hydroxy-2-methylpropanamide]
effect on micturition (physiological) contraction [1]: had no influence | effect on pre-micturition contraction (detrusor overactivity) [1]: inhibited | micturition contraction, relative to before administration = 100 ([1]; 0.001 mg/kg p.o., after 1 hour): 106.5 ± 11.3% | pre-micturition contraction, relative to before administration = 100 ([1]; 0.001 mg/kg p.o., after 1 hour): 83.5 ± 6.8% | micturition contraction, relative to before administration = 100 [1, 3]: 101.7 ± 9.5% | pre-micturition contraction, relative to before administration = 100 [1, 3]: 95.4 ± 12.0% | micturition contraction, relative to before administration = 100 [1, 4]: 103.1 ± 6.5% | pre-micturition contraction, relative to before administration = 100 [1, 4]: 105.5 ± 20.8% | micturition contraction, relative to before administration = 100 ([1]; 0.01 mg/kg p.o., after 1 hour): 114.4 ± 9.5% | pre-micturition contraction, relative to before administration = 100 ([1]; 0.01 mg/kg p.o., after 1 hour): 59.6 ± 8.1 % | micturition contraction, relative to before administration = 100 ([1]; 0.01 mg/kg p.o., after 3 hours): 117.6 ± 13.9% | pre-micturition contraction, relative to before administration = 100 ([1]; 0.01 mg/kg p.o., after 3 hours): 51.2 ± 6.7 % | micturition contraction, relative to before administration = 100 ([1]; 0.01 mg/kg p.o., after 5 hours): 117.6 ± 12.7% | pre-micturition contraction, relative to before administration = 100 ([1]; 0.01 mg/kg p.o., after 5 hours): 42.2 ± 7.2 % | micturition contraction, relative to before administration = 100 ([1]; 0.1 mg/kg p.o., after 1 hour): 109.3 ± 6.3% | pre-micturition contraction, relative to before administration = 100 ([1]; 0.1 mg/kg p.o., after 1 hour): 52.3 ± 9.1 % | micturition contraction, relative to before administration = 100 ([1]; 0.1 mg/kg p.o., after 3 hours): 110.2 ± 5.4% | pre-micturition contraction, relative to before administration = 100 ([1]; 0.1 mg/kg p.o., after 3 hours): 33.3 ± 6.3 % | micturition contraction, relative to before administration = 100 ([1]; 0.1 mg/kg p.o., after 5 hours): 112.4 ± 7.0% | pre-micturition contraction, relative to before administration = 100 ([1]; 0.1 mg/kg p.o., after 5 hours): 28.5 ± 6.2 % | influence upon Na^+ currents [2]: does not exert influence | Na^+ ion currents, normalized to control ([2]; 1.0 × 10^−6 mol/L): 0.99 ± 0.02 | Na^+ ion currents, normalized to control ([2]; 5.0 × 10^−4 mol/L): 1.00 ± 0.01 | Na^+ ion currents, normalized to control ([2]; 5.0 × 10^−5 mol/L): 1.00 ± 0.01 | Na^+ ion currents, normalized to control ([2]; 5.0 × 10^−6 mol/L): 1.00 ± 0.00 | Na^+ ion currents, normalized to control ([2]; 5.0 × 10^−7 mol/L): 0.99 ± 0.01 | Na^+ ion currents, normalized to control ([2]; 5.0 × 10^−8 mol/L): 0.99 ± 0.01
